≈ marks a conversion by molar mass, not a printed value. Read-outs that look alike come from different tables or passages of the source. Each block holds one compound with its values, some of them ahead of it.
What was measured:
[1] = system: Staphylococcus aureus MSSA; assay: MIC agar dilution assay (Table 1); format: cell-based; conditions: for MIC50: read-out: MIC, 50% Inhibitious; for MIC90: read-out: MIC, 90% Inhibitious
[2] = system: Streptococcus beta-hemolytic; assay: MIC agar dilution assay (Table 1); format: cell-based; conditions: for MIC50: read-out: MIC, 50% Inhibitious; for MIC90: read-out: MIC, 90% Inhibitious
[3] = system: Staphylococcus aureus MRSA; assay: MIC agar dilution assay (Table 1); format: cell-based; conditions: for MIC50: read-out: MIC, 50% Inhibitious; for MIC90: read-out: MIC, 90% Inhibitious
[4] = system: Streptococcus pneumoniae; assay: MIC agar dilution assay (Table 1); format: cell-based
[5] = system: Staph. aureus Smith; assay: animal or person; conditions: for ED50: Staphylococcus aureus, in Mus musculus, 168 h
Procedure: (§1) In this test, white mice (weight 20±2 g) of Charles River strain CDI received an intraperitoneal injection of a specific amount of a suspension of a bacterial cell culture. The amount is sufficient to cause death of untreated animals within 24-48 hrs. A half hour later, the test animals were administered either an oral or a subcutaneous dosing of the test compound in 0.5 ml of 0.2% starch solution. With streptococcal infections, the test animals received a second dose after 3 hrs. Each test group had 5 animals and each test was performed three times. The ED50 values were calculated on the basis of the survivors at 7 days. An estimate of the oral absorption of the test compounds was determined from the ratio of the ED50 values from the oral and subcutaneous dosings.

[6] = system: Strept. pneum. SVI; assay: animal or person; conditions: for ED50: Mus musculus, 168 h
Procedure: as §1

[7] = system: Strept. pyogenes C 203; assay: animal or person; conditions: for ED50: Streptococcus pyogenes, C203, in Mus musculus, 168 h
Procedure: as §1

[8] = system: Escherichia coli 314; assay: animal or person; conditions: for ED50: Escherichia coli, 314, in Mus musculus, 168 h
Procedure: as §1

[9] = system: Klebsiella pneum. AD; assay: animal or person; conditions: for ED50: Klebsiella, in Mus musculus, 168 h
Procedure: as §1

[10] = system: Staph. aureus SSC-80-32; assay: animal or person; conditions: for ED50: Staphylococcus aureus, SSC8032, in Mus musculus, 168 h
Procedure: as §1

[11] = system: Bacteroides fragilis; assay: MIC agar dilution assay, anaerobe bacteria (Table 1); format: cell-based
[12] = system: Bacteroides app.; assay: as above; format: cell-based; conditions: for MIC50: read-out: MIC, 50% Inhibitious; for MIC90: read-out: MIC, 90% Inhibitious
[13] = system: Streptococcus faecalis; assay: MIC agar dilution assay (Table 1); format: cell-based; conditions: Enterococcus faecalis; for MIC50: read-out: MIC, 50% Inhibitious; for MIC90: read-out: MIC, 90% Inhibitious
[14] = system: CITRO DIV; assay: MIC agar dilution assay (Table III); format: cell-based; conditions: 18 CITRO DIV K 82 24; 18 Hrs, 35 Celsius; read-out: MINIMAL INHIBITORY CONC.
Procedure: (§2) The results are summarized in Table III. |TEST: 406 METHOD: […] |MEDIUM: […] |INCUBATION: 18 Hrs. 35 Celsius | Aerobic: T

[15] = system: PSEU AERUG; assay: MIC agar dilution assay (Table III); format: cell-based; conditions: 18 h, read-out: MINIMAL INHIBITORY CONC.
Procedure: as §2

[16] = system: PROV STUA; assay: MIC agar dilution assay (Table III); format: cell-based; conditions: 17 PROV STUA CMC 83 3; 18 Hrs, 35 Celsius; read-out: MINIMAL INHIBITORY CONC.
Procedure: as §2

[17] = system: ESCH COLI; assay: MIC agar dilution assay (Table III); format: cell-based; conditions: 18 h, read-out: MINIMAL INHIBITORY CONC.
Procedure: as §2

[18] = system: STREP FAEC; assay: MIC agar dilution assay (Table III); format: cell-based; conditions: 18 h, read-out: MINIMAL INHIBITORY CONC.
Procedure: as §2

[19] = system: MORG MORG; assay: MIC agar dilution assay (Table III); format: cell-based; conditions: 18 h, read-out: MINIMAL INHIBITORY CONC.
Procedure: (§3) TEST: 406 METHOD: AGAR DIL
(§4) MEDIUM: MUEL-HIN INOCULUM: 1.OE+04 - 5.OE+04
(§5) INCUBATION: 18 Hrs. 35 Celsius

[20] = system: SERRAT MARC; assay: MIC agar dilution assay (Table III); format: cell-based; conditions: 18 h, read-out: MINIMAL INHIBITORY CONC.
Procedure: as §3, §4, §5

[21] = system: STAPH AUR; assay: MIC agar dilution assay (Table III); format: cell-based; conditions: 18 h, 24 STAPH AUR CMC 83 131, 35 Celsius, read-out: MINIMAL INHIBITORY CONC.
Procedure: as §3, §4, §5

[22] = o/s, estimate of oral absorption, 10080 min
[23] = read-out: MIC, 50% Inhibitious, 50%
[24] = read-out: MIC, 90% Inhibitious, 90%

Structure (SMILES): O=C(O)c1cn(C2CC2)c2cc(N3CCNCC3)c(F)cc2c1=O [CF, Ciprofloxacin]
- MIC50 ([1]; Staphylococcus aureus, MSSA): 0.5 µg/mL (≈ 1.51 µM)
- MIC90 ([1]; Staphylococcus aureus, MSSA): 1 µg/mL (≈ 3.02 µM)
- MIC50 ([2]; Streptococcus): 0.5 µg/mL (≈ 1.51 µM)
- MIC90 ([2]; Streptococcus): 1 µg/mL (≈ 3.02 µM)
- MIC50 ([3]; Staphylococcus aureus, MRSA): 1 µg/mL (≈ 3.02 µM)
- MIC90 ([3]; Staphylococcus aureus, MRSA): 1 µg/mL (≈ 3.02 µM)
- MIC50 ([4]; read-out: MIC, 50% Inhibitious): 1 µg/mL (≈ 3.02 µM)
- MIC90 ([4]; read-out: MIC, 90% Inhibitious): 2 µg/mL (≈ 6.04 µM)
- ED50 ([5]; po): 4.3 mg/kg
- ED50 ([5]; sc): 0.64 mg/kg
- Ratio o/s of the ED50 values from oral and subcutaneous administration [5, 22]: 6.7
- ED50 ([6]; po): 47 mg/kg
- ED50 ([6]; sc): 15 mg/kg
- Ratio o/s of the ED50 values from oral and subcutaneous administration [6, 22]: 3.1
- ED50 ([7]; po): 21 mg/kg
- ED50 ([7]; sc): 4 mg/kg
- Ratio o/s of the ED50 values from oral and subcutaneous administration [7, 22]: 5.3
- ED50 ([8]; po): 0.52 mg/kg
- ED50 ([8]; sc): 0.07 mg/kg
- Ratio o/s of the ED50 values from oral and subcutaneous administration [8, 22]: 7.4
- ED50 ([9]; po): 0.38 mg/kg
- ED50 ([9]; sc): 0.07 mg/kg
- Ratio o/s of the ED50 values from oral and subcutaneous administration [9, 22]: 4.8
- ED50 ([10]; po): 5.9 mg/kg
- ED50 ([10]; sc): 0.71 mg/kg
- Ratio o/s of the ED50 values from oral and subcutaneous administration [10, 22]: 8.3
- MIC50 ([11]; read-out: MIC, 50% Inhibitious): 4 µg/mL (≈ 12.1 µM)
- MIC90 ([11]; read-out: MIC, 90% Inhibitious): 4 µg/mL (≈ 12.1 µM)
- MIC50 ([12]; Bacteroides): 16 µg/mL (≈ 48.3 µM)
- MIC90 ([12]; Bacteroides): 16 µg/mL (≈ 48.3 µM)
- MIC50 [13]: 1 µg/mL (≈ 3.02 µM)
- MIC90 [13]: 2 µg/mL (≈ 6.04 µM)

- MIC50 [11, 23]: 16 µg/mL (≈ 49.9 µM)
- MIC90 [11, 24]: 16 µg/mL (≈ 49.9 µM)
- MIC50 ([12]; Bacteroides app., 50%): 16 µg/mL (≈ 49.9 µM)
Structure (SMILES): CCn1cc(C(=O)O)c(=O)c2cc(F)c(N3CCNCC3)nc21 [EC, Enoxacin]

Structure (SMILES): CN1CC2CC1CN2c1cc2c(cc1F)c(=O)c(C(=O)O)cn2-c1ccc(F)cc1 (stereo not shown) [Example 5, 6-Fluoro-1-(4-fluorophenyl)-1,4-dihydro-7(5-methyl-2,5-diazabicyclo(2.2.1)hept-2-yl)-4-oxoquinoline-3-carboxylic acid]
- MIC50 ([1]; Staphylococcus aureus, MSSA): 0.25 µg/mL (≈ 0.608 µM)
- MIC90 ([1]; Staphylococcus aureus, MSSA): 0.5 µg/mL (≈ 1.22 µM)
- MIC50 ([2]; Streptococcus): 1 µg/mL (≈ 2.43 µM)
- MIC90 ([2]; Streptococcus): 4 µg/mL (≈ 9.72 µM)
- MIC50 ([3]; Staphylococcus aureus, MRSA): 0.25 µg/mL (≈ 0.608 µM)
- MIC90 ([3]; Staphylococcus aureus, MRSA): 1 µg/mL (≈ 2.43 µM)
- MIC50 ([4]; read-out: MIC, 50% Inhibitious): 1 µg/mL (≈ 2.43 µM)
- MIC90 ([4]; read-out: MIC, 90% Inhibitious): 2 µg/mL (≈ 4.86 µM)
- MIC50 ([11]; read-out: MIC, 50% Inhibitious): 4 µg/mL (≈ 9.72 µM)
- MIC90 ([11]; read-out: MIC, 90% Inhibitious): 4 µg/mL (≈ 9.72 µM)
- MIC50 ([12]; Bacteroides): 8 µg/mL (≈ 19.4 µM)
- MIC90 ([12]; Bacteroides): 8 µg/mL (≈ 19.4 µM)
- MIC50 [13]: 4 µg/mL (≈ 9.72 µM)
- MIC90 [13]: 8 µg/mL (≈ 19.4 µM)

Structure (SMILES): CCn1cc(C(=O)O)c(=O)c2cc(F)c(N3CCN(C)CC3)cc21 [PF, Pefloxacin, reference compound]
- MIC [14]: 0.03 µg/mL (≈ 0.09 µM)
- MIC ([15]; 19 PSEU AERUG K 84 16, 35 Celsius): 4 µg/mL (≈ 12 µM)
- MIC ([15]; 20 PSEU AERUG VGH 84 3, 35 Celsius): 8 µg/mL (≈ 24 µM)
- MIC ([15]; 21 PSEU AERUG CMC 83 20, 35 Celsius): 2 µg/mL (≈ 6 µM)
- MIC [16]: 4 µg/mL (≈ 12 µM)
- MIC ([17]; 1 ESCH COLI MOR 84 20, 35 Celsius): 0.06 µg/mL (≈ 0.18 µM)
- MIC ([17]; 2 ESCH COLI VGH 84 19, 35 Celsius): 0.06 µg/mL (≈ 0.18 µM)
- MIC ([17]; 3 ESCH COLI CMC 84 50, 35 Celsius): 0.06 µg/mL (≈ 0.18 µM)
- MIC ([17]; 28 ESCH COLI ATCC 25922, 35 Celsius): 0.03 µg/mL (≈ 0.09 µM)
- MIC ([18]; 25 STREP FAEC UCI 85 30, 35 Celsius): 4 µg/mL (≈ 12 µM)
- MIC ([18]; 26 STREP FAEC VGH 84 69, 35 Celsius): 2 µg/mL (≈ 6 µM)
- MIC ([18]; 27 STREP FAEC CMC 83 120, 35 Celsius): 4 µg/mL (≈ 12 µM)
- MIC50 ([1]; Staphylococcus aureus MSSA, 50%): 0.5 µg/mL (≈ 1.5 µM)
- MIC90 ([1]; Staphylococcus aureus MSSA, 90%): 1 µg/mL (≈ 3 µM)
- MIC50 ([2]; Streptococcus beta-hemolytic, 50%): 4 µg/mL (≈ 12 µM)
- MIC90 ([2]; Streptococcus beta-hemolytic, 90%): 8 µg/mL (≈ 24 µM)
- MIC50 ([3]; Staphylococcus aureus MRSA, 50%): 0.5 µg/mL (≈ 1.5 µM)
- MIC90 ([3]; Staphylococcus aureus MRSA, 90%): 1 µg/mL (≈ 3 µM)
- MIC50 [4, 23]: 4 µg/mL (≈ 12 µM)
- MIC90 [4, 24]: 8 µg/mL (≈ 24 µM)
- ED50 ([5]; po): 3.8 mg/kg
- ED50 ([5]; sc): 1.4 mg/kg
- ED50 ([8]; po): 0.84 mg/kg
- ED50 ([8]; sc): 0.48 mg/kg
- ED50 ([9]; po): 0.8 mg/kg
- ED50 ([9]; sc): 0.71 mg/kg
- MIC ([19]; 14 MORG MORG CMC 84 38, 35 Celsius): 0.03 µg/mL (≈ 0.09 µM)
- MIC ([19]; 15 MORG MORG MOR 84 45, 35 Celsius): 0.03 µg/mL (≈ 0.09 µM)
- MIC ([20]; 10 SERRAT MARC MOR 84 41, 35 Celsius): 0.06 µg/mL (≈ 0.18 µM)
- MIC ([20]; 11 SERRAT MARC CMC 83 74, 35 Celsius): 4 µg/mL (≈ 12 µM)
- MIC [21]: 2 µg/mL (≈ 6 µM)
- MIC50 ([13]; Streptococcus faecalis, 50%): 4 µg/mL (≈ 12 µM)
- MIC90 ([13]; Streptococcus faecalis, 90%): 8 µg/mL (≈ 24 µM)

From patent US5045549A, “Substituted 4-pyridone 3-carboxylic acid derivatives, method for their production and their pharmaceutical compositions” (priority 1986, dated 1991)
